We go through 25 compounds from US20110230471A1, “BENZONAPHTYRIDINE COMPOUNDS AS INHIBITORS OF AUTOTAXIN” (MERCK PATENT GESELLSCHAFT MIT BESCHRANKTER HAFTUNG, priority 2008, published 2011).

In general, IC50 refers to the concentration needed to halve the response being measured.

Where only a bound is given, the exact number is not on record here.

One test deals with T1, recombinant autotaxin (Homo sapiens, UniProt Q13822).
T1 construct: made in house; host or cells: Hi5 insect cells (baculovirus)
The test can be described thus: Autotaxin test (enzyme test), Amplex Red. The conditions noted are these: Autotaxin inhibition (enzyme test), TABLE 1 (A compounds); substrate LPC 75 μM. In kind it is biochemical. As to the method: The autotaxin activity is measured indirectly using Amplex Red reagent. Amplex Red is measured here as fluorogenic indicator for the H2O2 formed. In detail, autotaxin converts the substrate lysophosphatidylcholine (LPC) into phosphocholine and lysophosphatidylic acid (LPA). After this reaction, the phosphocholine is reacted with alkaline phosphatase to give inorganic phosphate and choline. In the next step, choline is oxidised by choline oxidase to give betaine, with formation of H2O2. H2O2 reacts with Amplex Red reagent in the presence of peroxidase (horseradish peroxidase) in a 1:1 stoichiometry and forms the highly fluorescent resorufin. The fluorescence is measured in a reaction-dependent kinetic mode in order that fluorescent signals from possible other fluorescent substances which are not involved in the reaction can be corrected out.
1.5 μl of a standard solution or of the test substances (substances with the name A(n))in individual concentrations dissolved in 20 mM Hepes pH 7.2 with a maximum of 7.7% of DMSO are pre-incubated together with 10 μl (16 ng) of highly purified recombinant autotaxin in a black microtitre plate provided with 384 wells at 22° C. for 30 min. The reaction is then initiated by addition of 5 μl of L-α-lysophosphatidylcholine (LPC), where the final concentration of LPC is 75 μM. The mixture is incubated at 37° C. for 90 min. After the incubation, Amplex Red reagent, peroxidase (horseradish peroxidase) and choline oxidase is added, and the fluorescence is immediately measured at 612 nm with excitation of 485 nm in a “Tecan Ultra multimode” reader. The activity of autotaxin is calculated indirectly via detection of the H2O2 formed.
• Microtitre plate: PS microplate, 384 wells, small volume, black Corning, Cat#3677 • Protein: recombinant autotaxin (Baculovirale Hi5 Expression) • Substrate: L-α-lysophosphatidylcholine (chicken egg)); Avanti Polar Lipids # 830071 P • Standard: C14 LPA, Avanti Polar Lipids, Cat# 857120P • Detection reagent: Amplex Red reagent; Invitrogen # A12222; dissolved in 1.923 ml of DMSO peroxidase type VI-A (horseradish) from Sigma # P6782; dissolved in 7.45 ml of test buffer, choline oxidase; Sigma # C5896; dissolved in 2.47 ml of test buffer • Detection reagent mix: 1:100 dilution of Amplex Red reagent in test buffer • Test buffer: 200 mM Tris HCl, Merck, Cat # 1.08219, pH 7.9, 0.1% of BSA, lipid-free, Roche Cat#775835
For `O=C(CN1CCc2nc3ccccc3c(C(=O)N3CCOCC3)c2C1)Nc1cccc(Cl)c1` [Compound A9, N-(3-Chlorophenyl)-2-[10-(morpholine-4-carbonyl)-3,4-dihydro-1H-benzo-[b][1,6]naphthyridin-2-yl]acetamide], the IC50 was more than 1000 nM. On the same count and under the same terms, the value for `O=C(CN1CCc2nc3ccccc3c(C(=O)N3CCN(CCO)CC3)c2C1)Nc1ccc(Cl)c(Cl)c1` [Compound A76, N-(3,4-Dichlorophenyl)-2-{10-[4-(2-hydroxyethyl)piperazine-1-carbonyl]-3,4-dihydro-1H-benzo[b][1,6]naphthyridin-2-yl}acetamide] was more than 1000 nM; that for `COc1ccc(Cl)cc1NC(=O)CN1CCc2nc3ccccc3c(C(=O)N3CCN(CCN4CCCCC4)CC3)c2C1` [Compound A66, N-(5-Chloro-2-methoxyphenyl)-2-{10-[4-(2-piperidin-1-ylethyl)piperazine-1-carbonyl]-3,4-dihydro-1H-benzo[b][1,6]naphthyridin-2-yl}acetamide] was less than 100 nM; that for `COc1ccc(Br)cc1NC(=O)CN1CCc2nc3ccccc3c(C(=O)N3CCN(CCO)CC3)c2C1` [Compound A69, N-(5-Bromo-2-methoxyphenyl)-2-{10-[4-(2-hydroxyethyl)piperazine-1-carbonyl]-3,4-dihydro-1H-benzo[b][1,6]naphthyridin-2-yl}acetamide] was less than 100 nM. Same read-out and setting: the value for `CCOc1ncc(Cl)cc1NC(=O)CN1CCc2nc3ccccc3c(C(=O)N3CCOCC3)c2C1` [Compound A52, N-(5-Chloro-2-ethoxypyridin-3-yl)-2-[10-(morpholine-4-carbonyl)-3,4-dihydro-1H-benzo[b][1,6]naphthyridin-2-yl]acetamide] was more than 1000 nM. Same read-out and setting: under `O=C(CN1CCc2nc3ccccc3c(C(=O)N3CCN(CCO)CC3)c2C1)Nc1ccc(N2CCCC2=O)c(Cl)c1` [Compound A64, N-[3-Chloro-4-(2-oxopyrrolidin-1-yl)phenyl]-2-{10-[4-(2-hydroxyethyl)-piperazine-1-carbonyl]-3,4-dihydro-1H-benzo[b][1,6]naphthyridin-2-yl}-acetamide] stands more than 1000 nM. With `COc1ccc(-c2ccccc2)cc1NC(=O)CN1CCc2nc3ccccc3c(C(=O)N3CCOCC3)c2C1` [Compound A14, N-(4-Methoxybiphenyl-3-yl)-2-[10-(morpholine-4-carbonyl)-3,4-dihydro-1H-benzo[b][1,6]naphthyridin-2-yl]acetamide], the IC50 lay within 100 to 1000 nM. On the same count and under the same terms, the value for `COc1ccc(Cl)cc1NC(=O)CN1CCc2nc3cc(Cl)ccc3c(C(=O)N3CCOCC3)c2C1` [Compound A15, N-(5-Chloro-2-methoxyphenyl)-2-[7-chloro-10-(morpholine-4-carbonyl)-3,4-dihydro-1H-benzo[b][1,6]naphthyridin-2-yl]acetamide] was 100 to 1000 nM. The same measure, in the same setting: the value for `COc1ccc(C)cc1NC(=O)CN1CCc2nc3ccccc3c(C(=O)N3CCOCC3)c2C1` [Compound A12, N-(2-Methoxy-5-methylphenyl)-2-[10-(morpholine-4-carbonyl)-3,4-dihydro-1H-benzo[b][1,6]naphthyridin-2-yl]acetamide] was 100 to 1000 nM; that for `COc1ccccc1NC(=O)CN1CCc2nc3ccccc3c(C(=O)N3CCOCC3)c2C1` [Compound A10, N-(2-Methoxyphenyl)-2-[10-(morpholine-4-carbonyl)-3,4-dihydro-1H-benzo-[b][1,6]naphthyridin-2-yl]acetamide] was more than 1000 nM; that for `O=C(CN1CCc2nc3ccccc3c(C(=O)N3CCOCC3)c2C1)Nc1ccc(Cl)cc1O` [Compound A53, N-(4-Chloro-2-hydroxyphenyl)-2-[10-(morpholine-4-carbonyl)-3,4-dihydro-1H-benzo[b][1,6]naphthyridin-2-yl]acetamide] was 100 to 1000 nM.

Turning to `COc1ccc(Cl)cc1NC(=O)CN1CCc2nc3cc(Br)ccc3c(C(=O)N3CCOCC3)c2C1` [Compound A42, 2-[7-Bromo-10-(morpholine-4-carbonyl)-3,4-dihydro-1H-benzo[b][1,6]-naphthyridin-2-yl]-N-(5-chloro-2-methoxyphenyl)acetamide], the IC50 was in the range of 100 to 1000 nM. Still for that read-out and setting: the value for `CCOc1ccc(Cl)cc1NC(=O)CN1CCc2nc3ccccc3c(C(=O)N3CCOCC3)c2C1` [Compound A41, N-(5-Chloro-2-ethoxyphenyl)-2-[10-(morpholine-4-carbonyl)-3,4-dihydro-1H-benzo[b][1,6]naphthyridin-2-yl]acetamide] was more than 1000 nM; that for `O=C(CN1CCc2nc3ccccc3c(C(=O)N3CCN(CCO)CC3)c2C1)Nc1ccc(F)c(Cl)c1` [Compound A74, N-(3-Chloro-4-fluorophenyl)-2-{10-[4-(2-hydroxyethyl)piperazine-1-carbonyl]-3,4-dihydro-1H-benzo[b][1,6]naphthyridin-2-yl}acetamide] was more than 1000 nM. On the same count and under the same terms, the value for `CCN1CCN(C(=O)c2c3c(nc4ccccc24)CCN(CC(=O)Nc2cc(Cl)ccc2OC)C3)CC1` [Compound A23, N-(5-Chloro-2-methoxyphenyl)-2-[10-(4-ethylpiperazine-1-carbonyl)-3,4-dihydro-1H-benzo[b][1,6]naphthyridin-2-yl]acetamide] was less than 100 nM; that for `COc1ccc(Br)cc1NC(=O)CN1CCc2nc3ccccc3c(C(=O)N3CCOCC3)c2C1` [Compound A13, N-(5-Bromo-2-methoxyphenyl)-2-[10-(morpholine-4-carbonyl)-3,4-dihydro-1H-benzo[b][1,6]naphthyridin-2-yl]acetamide] was less than 100 nM; that for `O=C(CN1CCc2nc3ccccc3c(C(=O)N3CCOCC3)c2C1)Nc1cccc2ccoc12` [Compound A45, N-Benzofuran-7-yl-2-[10-(morpholine-4-carbonyl)-3,4-dihydro-1H-benzo-[b][1,6]naphthyridin-2-yl]acetamide] was more than 1000 nM.

The same test, now with this note: Autotaxin inhibition (enzyme test), TABLE 2 (B compounds); substrate LPC 75 μM.
On to `CSc1ccc(Cl)cc1NC(=O)CN1CCc2nc3ccccc3c(C(=O)N3CCN(CCO)CC3)c2C1` [Compound B17, N-(5-Chloro-2-methylsulfanylphenyl)-2-{10-[4-(2-hydroxyethyl)piperazine-1-carbonyl]-3,4-dihydro-1H-benzo[b][1,6]naphthyridin-2-yl}acetamide], for which the IC50 is more than 1000 nM. Still for that read-out and setting: the value for `CCNC(=O)c1c2c(nc3ccccc13)CCN(Cc1nnc(-c3cc(Cl)ccc3OC)o1)C2` [Compound B32, N-Ethyl-2-[5-(5-chloro-2-methoxyphenyl)-1,3,4-oxadiazol-2-ylmethyl]-1,2,3,4-tetrahydrobenzo[b][1,6]naphthyridine-10-carboxamide] was more than 1000 nM. Same read-out and setting: the value for `COc1ccc(Cl)cc1-c1nc(CN2CCc3nc4ccccc4c(C(=O)NC4CCN(C)CC4)c3C2)no1` [Compound B20, N-(1-Methylpiperidin-4-yl)-2-[5-(5-chloro-2-methoxyphenyl)-1,2,4-oxadiazol-3-ylmethyl]-1,2,3,4-tetrahydrobenzo[b][1,6]naphthyridine-10-carboxamide] was more than 1000 nM. Still for that read-out and setting: under `O=C(CN1CCc2nc3ccccc3c(C(=O)N3CCOCC3)c2C1)Nc1cc(Cl)ccc1OC(F)(F)F` [Compound B5, N-(5-Chloro-2-trifluoromethoxyphenyl)-2-[10-(morpholine-4-carbonyl)-3,4-dihydro-1H-benzo[b][1,6]naphthyridin-2-yl]acetamide] stands more than 1000 nM. On to `O=C(CN1CCc2nc3ccccc3c(C(=O)N3CCN(CCO)CC3)c2C1)Nc1cc(Cl)ccc1OC(F)(F)F` [Compound B4, N-(5-Chloro-2-trifluoromethoxyphenyl)-2-{10-[4-(2-hydroxyethyl)piperazine-1-carbonyl]-3,4-dihydro-1H-benzo[b][1,6]naphthyridin-2-yl}acetamide], for which the IC50 was more than 1000 nM.

`CN1CCC(NC(=O)c2c3c(nc4ccccc24)CCN(CCC(=O)Nc2cc(Cl)ccc2N)C3)CC1` [Compound B37]: the IC50 was more than 1000 nM. On the same count and under the same terms, the value for `COc1ccc(Cl)cc1NC(=O)CN1CCc2nc3ccccc3c(C(=O)Nc3ccc4[nH]nnc4c3)c2C1` [Compound B22, N-(1H-Benzotriazol-5-yl)-2-[(5-chloro-2-methoxyphenylcarbamoyl)methyl]-1,2,3,4-tetrahydrobenzo[b][1,6]naphthyridine-10-carboxamide] was 100 to 1000 nM; that for `O=C(c1c2c(nc3ccccc13)CCN(Cc1ccnc(Cl)c1)C2)N1CCOCC1` [Compound B52, [2-(2-Chloropyridin-4-ylmethyl)-1,2,3,4-tetrahydrobenzo[b][1,6]naphthyridin-10-yl]morpholin-4-ylmethanone] was more than 1000 nM.
